Tests used:
[1] = system: male Sprague-Dawley rats; assay: Assay 2: Effect on Prostate Weight; assay type: in vivo, rat; conditions: subcutaneous injection daily for 14 days, compared to vehicle
Protocol: Three-month-old male Sprague-Dawley rats are administered by subcutaneous injection control vehicle (10% ethanol in water), estradiol (30 μg/kg), testosterone (1 mg/kg), or a test compound according to the present invention daily for 14 days (n=6/group). After 14 days the animals are sacrificed, the prostate is removed, and the wet prostate weight is determined. Mean weight is determined and statistical significance (p<0.05) is determined compared to the vehicle-treated group using the Student's t-test.

[2] = system: male rats; conditions: cited from earlier work
[3] = unlike estrogen; cited from earlier work
[4] = system: male rats; conditions: 200 and 400 mg/kg/day; cited from earlier work

SMILES: C[C@]12CC[C@H]3[C@@H](CCC4=CC(=O)CC[C@@]43C)[C@@H]1CC[C@@H]2O [Testosterone, testosterone]
- effect on wet prostate weight ([1]; testosterone 1 mg/kg): no effect

SMILES: C[C@]12CC[C@@H]3c4ccc(O)cc4CC[C@H]3[C@@H]1CC[C@@H]2O [estrogen, estradiol]
- effect on wet prostate weight ([1]; estrogen at 30 μg/kg): significantly reduce prostate weight

SMILES: O=C(c1ccc(OCCN2CCCCC2)cc1)c1c(-c2ccc(O)cc2)sc2cc(O)ccc12 [raloxifene, 6-hydroxy-2-(4-hydroxyphenyl)-3-[4-(2-piperidinoethoxy)benzoyl] benzo[b] thiophene]
- effect on ventral prostate [2]: regression of the ventral prostate
- uterine stimulatory effect [3]: minimal uterine stimulatory effect

SMILES: CC/C(=C(\c1ccccc1)c1ccc(OCCN(C)C)cc1)c1ccccc1 [tamoxifen, 1-(4-β-dimethylaminoethoxyphenyl)-1,2-diphenyl-but-1-ene]
- weights of the testes and secondary sex organs [4]: reduces the weights of the testes and secondary sex organs
